{
  "source": "patent US20210392892A1",
  "about": "“COMPOSITIONS COMPRISING PYRIDINE CARBOXYLATE HERBICIDES AND ACETYL COA CARBOXYLASE (ACCASE) INHIBITOR HERBICIDES” (Corteva Agriscience LLC, priority 2018, published 2021)",
  "test_in_all_cases": "Greenhouse postemergence herbicidal effect (visual injury)",
  "assay_type_in_all_cases": "in vivo",
  "key": {"[1]": {"test_system": "LEFCH, Leptochloa chinensis (Chinese sprangletop)", "description": "(§1) Seeds of the desired test plant species were planted in a 90:10% v/v (volume/volume) mixture of PRO-MIX® BX (Premier Tech Horticulture, Quakertown, Pa., USA) and PROFILE® GREENS GRADE™ (Profile Products LLC, Buffalo Grove, Ill., USA) planting mixture, which typically has a pH of 5.2 to 6.2 and an organic matter content of at least 50 percent, in plastic pots with a surface area of 103.2 square centimeters (cm^2). In some aspects, to help ensure good germination and healthy plants, a fungicide treatment and/or other chemical or physical treatment was applied. The plants were grown for 7-36 days (d) in a greenhouse with an approximate 14-hour (h) photoperiod which was maintained at about 23° C. during the day and 22° C. during the night. Nutrients and water were added on a regular basis and supplemental lighting was provided with overhead metal halide 1000-Watt lamps as necessary. The plants were employed for testing when they reached the second or third true leaf stage.\n(§2) Emulsifiable concentrates of each of each pyridine carboxylate herbicide (Compound A or Compound B) were prepared at 100 grams acid equivalent per liter (g ae/L). The emulsifiable concentrates also included a safener, cloquintocet-mexyl, at 120 grams active ingredient per liter (g ai/L), unless otherwise noted below. An aliquot of each emulsifiable concentrate was placed in a 25 mL glass vial and diluted with an aqueous mixture of 1.25% (v/v) ACTIROB® B esterified rapeseed oil (Bayer Crop Science, Research Triangle Park, N.C., USA) or MSO® Concentrate with LECI-TECH® methylated soybean oil (Loveland Products, Loveland, Colo., USA) to obtain concentrated stock solutions at the highest application rate for each herbicide, based upon a 12 milliliter (mL) application volume at a rate of 187 liters per hectare (L/ha). The concentrated stock solutions were further diluted with an aqueous mixture of 1.25% v/v ACTIROB® B or MSO® Concentrate with LECI-TECH® to obtain stock solutions at reduced application rates for each herbicide. Spray solutions of the herbicide combinations (Compound A or Compound B plus ACCase inhibitor herbicide) were prepared by adding weighed amounts or aliquots of the ACCase inhibitor herbicide to the stock solutions of Compound A or Compound B to form 12-mL spray solutions in two-way combinations.\n(§3) The spray solutions were applied to the plant material with an overhead Mandel track sprayer equipped with 8002E nozzles calibrated to deliver 187 L/ha over an application area of 0.503 square meters (m^2) at a spray height of 18 inches (43 centimeters (cm)) above the average plant canopy. Control plants were sprayed in the same manner with the solvent blank. All pyridine carboxylate herbicide (component a) application rates are given as “g ae/ha” and all ACCase inhibitor herbicide (component b) application rates are given as “g ai/ha.”\n(§4) The treated plants and control plants were placed in a greenhouse as described above and watered by sub-irrigation to prevent wash-off of the test compounds. After 20-22 d, the condition of the test plants as compared with that of the control plants was determined visually and scored on a scale of 0 to 100 percent where 0 corresponds to no injury and 100 corresponds to complete kill."}, "[2]": {"test_system": "KCHSC, Kochia scoparia (kochia)", "description": "as §1, §2, §3, §4"}, "[3]": {"test_system": "SETFA, Setaria faberi (giant foxtail)", "description": "as §1, §2, §3, §4"}, "[4]": {"test_system": "ZEAMX, Zea mays (maize)", "conditions": "with cloquintocet-mexyl", "description": "as §1, §2, §3, §4"}, "[5]": {"test_system": "CIRAR, Cirsium arvense (Canadian thistle)", "description": "as §1, §2, §3, §4"}, "[6]": {"conditions": "7.5 g ae/ha, without cloquintocet-mexyl"}, "[7]": {"conditions": "10 g ae/ha, without cloquintocet-mexyl"}, "[8]": {"conditions": "7.5 g ae/ha, with cloquintocet-mexyl"}, "[9]": {"conditions": "10 g ae/ha, with cloquintocet-mexyl"}},
  "note": "“And” between values parts separate entries of the source, which are not always exact repeats. Equal entries are not always repeated.",
  "data": [
    {"compound": "N#CCOC(=O)c1nc(-c2ccc3cc[nH]c3c2F)c(F)c(N)c1Cl", "note": "[Compound A, cyanomethyl 4-amino-3-chloro-5-fluoro-6-(7-fluoro-1H-indol-6-yl)pyridine-2-carboxylate]", "values": [
      {"measurement": "% visual injury, Obs", "setting": "[1]; [6]", "result": 0, "unit": "%"},
      {"measurement": "% visual injury, Obs", "setting": "[1]; [7]", "result": "0% and 5%"},
      {"measurement": "% visual injury, Obs", "setting": "[1]; LEFCH, Compound A 7.5 g/ha, Fluazifop 0 g/ha", "result": 0, "unit": "%"},
      {"measurement": "% visual injury, Obs", "setting": "[1]; LEFCH, Compound A 7.5 g/ha, Haloxyfop-R-methyl 0 g/ha", "result": 0, "unit": "%"},
      {"measurement": "% visual injury, Obs", "setting": "[1]; LEFCH, Compound A 7.5 g/ha, Quizalofop-P-ethyl 0 g/ha", "result": 0, "unit": "%"},
      {"measurement": "% visual injury, Obs", "setting": "[1]; LEFCH, Compound A 10 g/ha, Fluazifop 0 g/ha", "result": 0, "unit": "%"},
      {"measurement": "% visual injury, Obs", "setting": "[1]; LEFCH, Compound A 10 g/ha, Haloxyfop-R-methyl 0 g/ha", "result": 5, "unit": "%"},
      {"measurement": "% visual injury, Obs", "setting": "[1]; LEFCH, Compound A 10 g/ha, Quizalofop-P-ethyl 0 g/ha", "result": 5, "unit": "%"},
      {"measurement": "% visual injury, Obs", "setting": "[2]; [8]", "result": 63, "unit": "%"},
      {"measurement": "% visual injury, Obs", "setting": "[2]; [6]", "result": 73, "unit": "%"},
      {"measurement": "% visual injury, Obs", "setting": "[2]; [9]", "result": 70, "unit": "%"},
      {"measurement": "% visual injury, Obs", "setting": "[2]; [7]", "result": 88, "unit": "%"},
      {"measurement": "% visual injury, Obs", "setting": "[2]; KCHSC, Compound A 7.5 g/ha, Fluazifop 0 g/ha", "result": 73, "unit": "%"},
      {"measurement": "% visual injury, Obs", "setting": "[2]; KCHSC, Compound A 10 g/ha, Fluazifop 0 g/ha", "result": 88, "unit": "%"},
      {"measurement": "% visual injury, Obs", "setting": "[3]; [8]", "result": 0, "unit": "%"},
      {"measurement": "% visual injury, Obs", "setting": "[3]; [9]", "result": 0, "unit": "%"},
      {"measurement": "% visual injury, Obs", "setting": "[3]; SETFA, Compound A 7.5 g/ha, Fluazifop 0 g/ha", "result": 0, "unit": "%"},
      {"measurement": "% visual injury, Obs", "setting": "[3]; SETFA, Compound A 7.5 g/ha, Haloxyfop-R-methyl 0 g/ha", "result": 63, "unit": "%"},
      {"measurement": "% visual injury, Obs", "setting": "[3]; SETFA, Compound A 7.5 g/ha, Quizalofop-P-ethyl 0 g/ha", "result": 63, "unit": "%"},
      {"measurement": "% visual injury, Obs", "setting": "[3]; SETFA, Compound A 10 g/ha, Fluazifop 0 g/ha", "result": 0, "unit": "%"},
      {"measurement": "% visual injury, Obs", "setting": "[3]; SETFA, Compound A 10 g/ha, Haloxyfop-R-methyl 0 g/ha", "result": 60, "unit": "%"},
      {"measurement": "% visual injury, Obs", "setting": "[3]; SETFA, Compound A 10 g/ha, Quizalofop-P-ethyl 0 g/ha", "result": 60, "unit": "%"},
      {"measurement": "% visual injury, Obs", "setting": "[4]; 7.5 g ae/ha", "result": 0, "unit": "%"},
      {"measurement": "% visual injury, Obs", "setting": "[4]; 10 g ae/ha", "result": 0, "unit": "%"},
      {"measurement": "% visual injury, Obs", "setting": "[5]; [6]", "result": 40, "unit": "%"},
      {"measurement": "% visual injury, Obs", "setting": "[5]; [7]", "result": 28, "unit": "%"},
      {"measurement": "% visual injury, Obs", "setting": "[5]; CIRAR, Compound A 7.5 g/ha, Fluazifop 0 g/ha", "result": 40, "unit": "%"},
      {"measurement": "% visual injury, Obs", "setting": "[5]; CIRAR, Compound A 10 g/ha, Fluazifop 0 g/ha", "result": 28, "unit": "%"}
    ]}
  ]
}
